Measured values taken from patent US6852756B1, “Use of pleuromutilin derivatives for transdermal treatment of bacterial diseases” (Novartis Animal Health US Inc., priority 1999, dated 2005).

Key:
[1] = Additional experiments: topical application as a spot on, tissue amounts, pigs; type: in vivo
[2] = tested on: Bovine Digital Dermatitis; test: Footbath / foot spray treatment of lactating cows with clinical signs of Bovine Digital Dermatitis (footrot); type: in vivo, cattle; conditions: four lactating cows; footbath Day 1 and Day 3, foot spray Day 5; 10% valnemulin solution; after one week
Protocol: (§1) Disease: Footrot Type of administration: Footbath or directly as spray Test Protocol: Four lactating adult cows with clinical signs of Bovine Digital Dermatitis are recruited to the study. Blood and milk samples are taken before, and at intervals after application of a water/ethanol solution containing 10% valnemulin either as a footbath, or directly by spraying the feet. Footbath solutions are prepared fresh each treatment day. A calculated quantity of test product is added to an estimated volume of water, which is placed in the footbath beforehand. The cows are driven individually into the footbath and made to stand there with their feet covered by footbath solution for 2 minutes. Foot spraying involves the use of a hand operated spraying device into which 100 ml of the test product are placed. Said 100 ml are distributed between the feet of each cow and applied directly to the lower leg areas and around and underneath each foot. […]

[3] = Additional experiments: topical application as a spot on, tissue amounts, cattle; type: in vivo
[4] = Assessment of the systemic absorption of valnemulin after cutaneous administration (footbath / foot spray) in cattle; HPLC of blood and milk; type: in vivo; conditions: lactating cows, footbath Day 1 and Day 3, foot spray Day 5, 10% valnemulin solution
From the text: as §1, with “2. Assessment of the Systemic Absorption of Valnemulin-Type of Compounds After Cutaneous Administration in Cattle” for “Disease: Footrot”, “feet. Test Formulation: Water/ethanol solution containing 10% valnemulin [table]” for “feet.”, “foot. Valnemulin content of samples is determined by a validated High Performance Liquid Chromatography (HPLC) method. Day 1; a.m. milking samples (50 ml/sample) are taken before the first treatment, thus serving as control measurements.” for “foot.”

[5] = Preliminary test: transdermal study in pigs (tissue, bile and plasma concentrations after cutaneous administration); type: in vivo; conditions: 2 × 25 mg/kg of body weight
Protocol: 1. Preliminary Test: Transdermal Study in Pigs [table] The test solution is administered cutaneously to the skin of the animal and the […], lung, skin, bile and plasma concentrations are determined. For determining the concentrations (μg/ml of plasma or g of tissue) a calibration curve of valnemulin in plasma is used. These investigations are not meant to determine the exact values but to provide only a yes or no answer.

[6] = Animal No 1, water solution containing 10% valnemulin
[7] = Animal No 2, 40% ethanol/water solution containing 10% valnemulin

## C=C[C@]1(C)C[C@@H](OC(=O)CSC(C)(C)CNC(=O)[C@H](N)C(C)C)[C@]2(C)[C@H](C)CC[C@]3(CCC(=O)[C@H]32)[C@@H](C)[C@@H]1O [valnemulin]
[1]
  amounts of active ingredient found in tissues (brain, liver, muscle, spleen, lung): fairly high amounts
[2]
  symptoms of footrot after treatment: none of the treated cows shows any symptoms of footrot
[3]
  amounts of active ingredient found in tissues (brain, liver, muscle, spleen, lung): fairly high amounts
[4]
  valnemulin concentrations in blood samples: found in most milk and blood samples
  valnemulin concentrations in milk samples: found in most milk and blood samples
[5]; [6]
  bile concentration: 0.155 μg/ml of plasma or g of tissue
  liver concentration: 0.175 μg/ml of plasma or g of tissue
  lung concentration: 0.916 μg/ml of plasma or g of tissue
  plasma concentration 3 hours after 1st application: <limit of detection
  plasma concentration 6 hours after 1st application: <limit of detection
  skin concentration: 39.056 μg/ml of plasma or g of tissue
[5]; [7]
  bile concentration: <limit of detection
  liver concentration: 0.132 μg/ml of plasma or g of tissue
  lung concentration: 0.353 μg/ml of plasma or g of tissue
  plasma concentration 3 hours after 1st application: <limit of detection
  plasma concentration 6 hours after 1st application: 0.07 μg/ml of plasma or g of tissue
  skin concentration: 6.965 μg/ml of plasma or g of tissue
